Earlier results, collected in patent US20130071408A1, “Methods for Diagnosis and Treatment of Non-Insulin Dependent Diabetes Mellitus” (priority 2010, published 2013).

Target: CD44 and HA (Homo sapiens, UniProt P16070)
Details: cell-based assay; read-out: IC50 value, inhibits the binding of CD44 and HA

Chain of CD44 and HA (P16070 21-742): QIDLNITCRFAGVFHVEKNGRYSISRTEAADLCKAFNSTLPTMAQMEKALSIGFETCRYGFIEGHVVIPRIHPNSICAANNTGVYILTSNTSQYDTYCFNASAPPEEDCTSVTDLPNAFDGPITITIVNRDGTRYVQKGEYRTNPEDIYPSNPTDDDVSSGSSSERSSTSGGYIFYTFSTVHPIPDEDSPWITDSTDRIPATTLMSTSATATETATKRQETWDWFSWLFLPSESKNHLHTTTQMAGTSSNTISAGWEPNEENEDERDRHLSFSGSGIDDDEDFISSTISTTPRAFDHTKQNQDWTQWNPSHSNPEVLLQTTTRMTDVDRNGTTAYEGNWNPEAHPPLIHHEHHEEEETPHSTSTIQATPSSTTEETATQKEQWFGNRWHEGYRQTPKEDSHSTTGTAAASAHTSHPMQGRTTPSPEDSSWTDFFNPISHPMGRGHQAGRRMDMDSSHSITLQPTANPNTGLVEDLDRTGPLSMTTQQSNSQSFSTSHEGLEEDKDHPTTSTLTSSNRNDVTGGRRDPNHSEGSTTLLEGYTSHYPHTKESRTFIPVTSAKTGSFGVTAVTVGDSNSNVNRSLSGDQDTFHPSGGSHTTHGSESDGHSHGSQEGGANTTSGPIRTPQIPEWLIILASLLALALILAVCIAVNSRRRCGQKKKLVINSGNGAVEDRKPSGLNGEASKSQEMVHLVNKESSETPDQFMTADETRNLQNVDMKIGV

CCCCCCC(O)CCCC(CCCCCCCCCCCCCC(O)C(=O)O)OC1OCC(O)C(O)C1OC1OCC(OC(C)=O)C(O)C1OC1OC(COC(C)=O)C(O)C(O)C1O (stereo not shown) [F-19848 A]
IC50: 23.5 µM
